Measured values taken from ChEMBL document CHEMBL1143206, “Carbonic anhydrase inhibitors: copper(II) complexes of polyamino-polycarboxylamido aromatic/heterocyclic sulfonamides are very potent inhibitors of the tumor-associated isoforms IX and XII” (Bioorg Med Chem Lett, 2008).

target: Carbonic anhydrase 9 (Homo sapiens, UniProt Q16790)
Description: Inhibition of human recombinant CA9 by CO2 hydration stopped flow assay

`NS(=O)(=O)c1ccc(NC(=O)CN(CCN(CCN(CC(=O)O)CC(=O)Nc2ccc(S(N)(=O)=O)cc2)CC(=O)O)CC(=O)O)cc1` and `NS(=O)(=O)c1ccc(NC(=O)CN(CCN(CC(=O)O)CC(=O)Nc2ccc(S(N)(=O)=O)cc2)CC(=O)O)cc1` are within 1.5-fold of each other in Ki: 8.4 nM for the first, 7.8 nM for the second.

`NS(=O)(=O)c1ccc(CNC(=O)CN(CCN(CC(=O)O)CC(=O)NCc2ccc(S(N)(=O)=O)cc2)CC(=O)O)cc1` and `NS(=O)(=O)c1ccc(CNC(=O)CN(CCN(CCN(CC(=O)O)CC(=O)NCc2ccc(S(N)(=O)=O)cc2)CC(=O)O)CC(=O)O)cc1` are within 1.5-fold of each other in Ki: 7.3 nM for the first, 8.7 nM for the second.

`NS(=O)(=O)c1cccc(NC(=O)CN(CCN(CC(=O)O)CC(=O)Nc2cccc(S(N)(=O)=O)c2)CC(=O)O)c1` and `NS(=O)(=O)c1cccc(NC(=O)CN(CCN(CCN(CC(=O)O)CC(=O)Nc2cccc(S(N)(=O)=O)c2)CC(=O)O)CC(=O)O)c1` are within 1.5-fold of each other in Ki: 7.9 nM for the first, 9.6 nM for the second.

`NS(=O)(=O)c1ccc(CCNC(=O)CN(CCN(CCN(CC(=O)O)CC(=O)NCCc2ccc(S(N)(=O)=O)cc2)CC(=O)O)CC(=O)O)cc1` and `NS(=O)(=O)c1ccc(CCNC(=O)CN(CCN(CC(=O)O)CC(=O)NCCc2ccc(S(N)(=O)=O)cc2)CC(=O)O)cc1` are within 1.5-fold of each other in Ki: 7.5 nM for the first, 8.2 nM for the second.

`NS(=O)(=O)c1nnc(NC(=O)CN(CCN(CC(=O)O)CC(=O)Nc2nnc(S(N)(=O)=O)s2)CC(=O)O)s1` and `NS(=O)(=O)c1nnc(NC(=O)CN(CCN(CCN(CC(=O)O)CC(=O)Nc2nnc(S(N)(=O)=O)s2)CC(=O)O)CC(=O)O)s1` are within 1.5-fold of each other in Ki: 8.5 nM for the first, 8.3 nM for the second.

In the case of `O=C1NS(=O)(=O)c2ccccc21` [SACCHARIN], the Ki is reported as 103 nM.

target: Carbonic anhydrase 12 (Homo sapiens, UniProt O43570)
Sequence (O43570 whole entry): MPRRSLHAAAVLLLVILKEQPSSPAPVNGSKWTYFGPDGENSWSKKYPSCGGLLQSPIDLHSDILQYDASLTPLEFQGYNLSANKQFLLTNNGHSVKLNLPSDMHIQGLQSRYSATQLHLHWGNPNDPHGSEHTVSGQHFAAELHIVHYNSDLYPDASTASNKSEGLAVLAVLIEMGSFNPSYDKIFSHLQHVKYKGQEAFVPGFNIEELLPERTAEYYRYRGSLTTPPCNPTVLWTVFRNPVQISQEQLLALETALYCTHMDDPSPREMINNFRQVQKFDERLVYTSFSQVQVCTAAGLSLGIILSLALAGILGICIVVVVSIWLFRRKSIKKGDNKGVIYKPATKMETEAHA
Description: Inhibition of human recombinant CA12 by CO2 hydration stopped flow assay

`O=C1NS(=O)(=O)c2ccccc21` [SACCHARIN] was tested, and the Ki was 633 nM.
